Where “and” joins values, the source holds several entries; their conditions need not be identical. Equal values may be shown once. Inconclusive results and toxic doses are left out. Rule for the calls: active = survival T/C of 150% or more; inactive = T/C below 125% in these data.
System: P388 leukemia ip, CD2F1 mice, survival T/C
Test: NCI In Vivo Anticancer Drug Screen. Data for tumor model P388 Leukemia (intraperitoneal) in CD2F1 (CDF1) mice
Conditions: endpoint: median survival time, higher = longer survival
Summary of the method: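 Mice carrying the transplanted tumor received test compound or vehicle. Survival was recorded in each group, and the value is the treated-group measurement divided by that of the vehicle-treated control group.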

[1] = dose: 50.0 mg/kg/injection, schedule: Q01DX005 (ip), vehicle: saline with Tween-80
[2] = dose: 120.0 mg/kg/injection, schedule: Q01DX005 (ip), vehicle: saline with Tween-80
[3] = dose: 240.0 mg/kg/injection, schedule: Q01DX005 (ip), vehicle: saline with Tween-80
[4] = dose: 60.0 mg/kg/injection, schedule: Q01DX005 (ip), vehicle: saline with Tween-80
[5] = dose: 100.0 mg/kg/injection, schedule: Q01DX005 (ip), vehicle: saline with Tween-80
[6] = dose: 200.0 mg/kg/injection, schedule: Q01DX005 (ip), vehicle: saline with Tween-80
[7] = dose: 15.0 mg/kg/injection, schedule: Q01DX005 (ip), vehicle: saline with Tween-80
[8] = dose: 30.0 mg/kg/injection, schedule: Q01DX005 (ip), vehicle: saline with Tween-80
[9] = dose: 50.0 mg/kg/injection, schedule: Q01DX005 (ip), vehicle: Klucel (hydroxypropylcellulose) (HPC)
[10] = dose: 100.0 mg/kg/injection, schedule: Q01DX005 (ip), vehicle: Klucel (hydroxypropylcellulose) (HPC)
[11] = dose: 200.0 mg/kg/injection, schedule: Q01DX005 (ip), vehicle: Klucel (hydroxypropylcellulose) (HPC)
[12] = dose: 12.5 mg/kg/injection, schedule: Q01DX009 (ip), vehicle: saline with Tween-80
[13] = dose: 25.0 mg/kg/injection, schedule: Q01DX009 (ip), vehicle: saline with Tween-80
[14] = dose: 50.0 mg/kg/injection, schedule: Q01DX009 (ip), vehicle: saline with Tween-80
[15] = dose: 100.0 mg/kg/injection, schedule: Q01DX009 (ip), vehicle: saline with Tween-80
[16] = dose: 200.0 mg/kg/injection, schedule: Q01DX009 (ip), vehicle: saline with Tween-80
[17] = dose: 60.0 mg/kg/injection, schedule: Q01DX005 (ip), vehicle: Klucel (hydroxypropylcellulose) (HPC)
[18] = dose: 120.0 mg/kg/injection, schedule: Q01DX005 (ip), vehicle: Klucel (hydroxypropylcellulose) (HPC)
[19] = dose: 240.0 mg/kg/injection, schedule: Q01DX005 (ip), vehicle: Klucel (hydroxypropylcellulose) (HPC)
[20] = dose: 12.5 mg/kg/injection, schedule: Q01DX005 (ip), vehicle: saline with Tween-80
[21] = dose: 25.0 mg/kg/injection, schedule: Q01DX005 (ip), vehicle: saline with Tween-80

Measured: T/C

CC(C)CC(NC(=O)C(C)N)C(=O)NC(C)C(=O)NC1C(O)OC(CO)C(O)C1O (stereo unspecified)
inactive: dose: 100.0 mg/kg/injection, schedule: Q01DX001 (ip), vehicle: saline with Tween-80 100 % of control | dose: 200.0 mg/kg/injection, schedule: Q01DX001 (ip), vehicle: saline with Tween-80 97 % of control | dose: 400.0 mg/kg/injection, schedule: Q01DX001 (ip), vehicle: saline with Tween-80 91 % of control

Cc1ccc(NC(=O)CC(=O)CC(C)C)cc1C
inactive: [1] 107 % of control | [2] 113 % of control | [3] 114 % of control

CC1OS(=O)(=O)CS(=O)(=O)OC1C (stereo unspecified)
inactive: [4] 101 % of control | [2] 101 % of control

Clc1ccc(CN2COc3c(cc(Cl)c4cccnc34)C2)cc1Cl
inactive: dose: 100.0 mg/kg/injection, schedule: Q04DX003 (ip), vehicle: Klucel (hydroxypropylcellulose) (HPC) 97 % of control | dose: 200.0 mg/kg/injection, schedule: Q04DX003 (ip), vehicle: Klucel (hydroxypropylcellulose) (HPC) 97 % of control | dose: 400.0 mg/kg/injection, schedule: Q04DX003 (ip), vehicle: Klucel (hydroxypropylcellulose) (HPC) 89 % of control

Clc1c(Br)c(-c2ccccc2)nc2ccccc12
inactive: [1] 108 % of control | [5] 110 % of control | [6] 108 % of control

COC(=O)c1c(O)c(OC)c(-c2ccccc2)[nH]c1=O
inactive: [4] 89 % of control | [2] 89 % of control

O=C(CCCl)Nc1cccc(CCC(=O)c2cccc(NC(=O)CCCl)c2)c1
inactive: [7] 103 % of control | [8] 103 % of control | [4] 102 % of control and 103 % of control | [2] 103 % of control | [3] 110 % of control

Nc1cc2nc3ccccc3oc-2cc1=O
inactive: [9] 105 % of control | [10] 101 % of control | [11] 97 % of control

CCOC(=O)c1c(C)[nH]c(-c2ccccc2)c1NS(=O)(=O)c1ccc(NC(C)=O)cc1
inactive: [4] 106 % of control | [2] 93 % of control | [3] 99 % of control

COc1c2occc2c(OC)c2/c(=N/O)cc(C)oc12
inactive: dose: 50.0 mg/kg/injection, schedule: Q01DX009 (ip), vehicle: saline 107 % of control | dose: 100.0 mg/kg/injection, schedule: Q01DX009 (ip), vehicle: saline 98 % of control | dose: 200.0 mg/kg/injection, schedule: Q01DX009 (ip), vehicle: saline 97 % of control

C[n+]1cccc(C(=S)[S-])c1
inactive: [12] 100 % of control | [13] 95 % of control | [14] 90 % of control

COc1ccc(-c2cc[n+]([O-])c(C)c2C)c(OC)c1OC
inactive: [14] 94 % of control | [15] 96 % of control | [16] 92 % of control

CC(C)N1C(=O)NC2C1NC(=O)N2C(C)C (stereo unspecified) (tested in a mixture with another compound)
inactive: [4] 106 % of control | [2] 105 % of control | [3] 105 % of control

O=C(O)/C=C\C(=O)N[C@H]1CCSC1=O
inactive: [17] 94 % of control | [18] 94 % of control | [19] 90 % of control

COC(=O)c1nnc(C(=O)OC)c2c1c1ccccc1n2C(=O)c1ccccc1
inactive: [4] 105 % of control | [2] 93 % of control | [3] 91 % of control

O=C(OCCO)c1ccccc1-c1c2cc3cc(Br)c(O)c(Br)c3oc-2c(Br)c(=O)c1Br
inactive: dose: 60.0 mg/kg/injection, schedule: Q01DX005 (ip), vehicle: saline 100 % of control | dose: 120.0 mg/kg/injection, schedule: Q01DX005 (ip), vehicle: saline 94 % of control | dose: 240.0 mg/kg/injection, schedule: Q01DX005 (ip), vehicle: saline 105 % of control

COc1cc(/C=N/N2CC(=O)N(c3cccc(Cl)c3)CC2=O)cc(OC)c1
inactive: dose: 7.5 mg/kg/injection, schedule: Q01DX005 (ip), vehicle: saline with Tween-80 95 % of control | [7] 96 % of control | [8] 94 % of control

CCOC(=O)/C(=C/c1ncnc2nc[nH]c12)C(F)(F)C(=O)OCC
inactive: dose: 25.0 mg/kg/injection, schedule: Q04DX003 (ip), vehicle: saline 97 % of control | dose: 50.0 mg/kg/injection, schedule: Q04DX003 (ip), vehicle: saline 100 % of control | dose: 100.0 mg/kg/injection, schedule: Q04DX003 (ip), vehicle: saline 99 % of control

Cc1ccc(S(=O)(=O)N(C)C2c3ccccc3Oc3ccccc32)cc1
inactive: dose: 12.5 mg/kg/injection, schedule: Q01DX009 (ip), vehicle: Klucel (hydroxypropylcellulose) (HPC) 106 % of control | dose: 25.0 mg/kg/injection, schedule: Q01DX009 (ip), vehicle: Klucel (hydroxypropylcellulose) (HPC) 106 % of control | dose: 50.0 mg/kg/injection, schedule: Q01DX009 (ip), vehicle: Klucel (hydroxypropylcellulose) (HPC) 106 % of control and 87 % of control | dose: 100.0 mg/kg/injection, schedule: Q01DX009 (ip), vehicle: Klucel (hydroxypropylcellulose) (HPC) 91 % of control | dose: 200.0 mg/kg/injection, schedule: Q01DX009 (ip), vehicle: Klucel (hydroxypropylcellulose) (HPC) 92 % of control | dose: 400.0 mg/kg/injection, schedule: Q01DX009 (ip), vehicle: Klucel (hydroxypropylcellulose) (HPC) 92 % of control

CCCCCCCCN(CCCCCCCC)C(=N)c1ccnc2ccccc12
inactive: dose: 6.25 mg/kg/injection, schedule: Q01DX005 (ip), vehicle: saline with Tween-80 101 % of control | [20] 101 % of control | [21] 97 % of control | [1] 96 % of control

COc1cc(C(CC(C)=O)c2cc3c(cc2OC(C)=O)OCO3)cc(OC)c1OC(C)=O (stereo unspecified)
inactive: [4] 105 % of control | [2] 89 % of control

COC1OC(=O)C(Cl)=C1N=[N+]=[N-] (stereo unspecified)
inactive: dose: 15.0 mg/kg/injection, schedule: Q01DX005 (ip), vehicle: Klucel (hydroxypropylcellulose) (HPC) 105 % of control | dose: 30.0 mg/kg/injection, schedule: Q01DX005 (ip), vehicle: Klucel (hydroxypropylcellulose) (HPC) 102 % of control | [17] 109 % of control

Cc1cc(N)c(C)c2c1[nH]c1ccc(Br)cc12
inactive: [1] 94 % of control | [5] 93 % of control | [6] 89 % of control

COc1cc(C2c3cc4c(cc3OC3(N5CCCC5)CCCC23)OCO4)cc(OC)c1OC (stereo unspecified)
inactive: [17] 96 % of control | [18] 97 % of control | [19] 96 % of control

COc1cc(C(=O)NN=C2c3ccccc3-c3ccccc32)cc(OC)c1OC
inactive: [14] 93 % of control | [15] 88 % of control | [16] 87 % of control

CC(=O)C[n+]1cccc(C)c1Sc1ccccc1
inactive: [20] 97 % of control | [21] 101 % of control | [1] 108 % of control and 94 % of control

Clc1ccc2c(ccc3cccnc32)n1
inactive: dose: 50.0 mg/kg/injection, schedule: Q04DX002 (ip), vehicle: saline with Tween-80 100 % of control | dose: 100.0 mg/kg/injection, schedule: Q04DX002 (ip), vehicle: saline with Tween-80 97 % of control | dose: 200.0 mg/kg/injection, schedule: Q04DX002 (ip), vehicle: saline with Tween-80 94 % of control

CCN(CC)CCOC1CC(C)CCC1C(C)C (stereo unspecified)
inactive: dose: 50.0 mg/kg/injection, schedule: Q01DX005 (ip), vehicle: saline 111 % of control | dose: 100.0 mg/kg/injection, schedule: Q01DX005 (ip), vehicle: saline 100 % of control | dose: 200.0 mg/kg/injection, schedule: Q01DX005 (ip), vehicle: saline 100 % of control

Cc1cc(N/N=C/c2ccc([N+](=O)[O-])o2)c2cc3c(cc2n1)OCO3
inactive: [9] 91 % of control | [10] 98 % of control | [11] 96 % of control

CCOS(=O)(=O)CCl
inactive: [12] 106 % of control | [13] 100 % of control | [14] 107 % of control and 112 % of control

O=C(O)[C@@H]1c2ccccc2-c2ccccc2[C@H]1C(=O)O
inactive: [1] 98 % of control | [5] 95 % of control | [6] 107 % of control

From PubChem BioAssay AID330 (DTP/NCI, 2004)
